Patent publication US9427439B1, “Methods and compositions for recovery from stroke” (EIP Pharma, LLC, priority 2015, dated 2016)

Key:
animal models of stroke = conditions: administered 24-hours after stroke; cited from earlier work
[1] = treatment of rheumatoid arthritis; cited from earlier work
[2] = tested on: rat model of stroke (transient MCAO); experiment: tMCAO rat stroke model: Neuroscore (mNSS); format: in vivo; conditions: Groups 2M (1.5 mg/kg) and 3M (4.5 mg/kg), PO twice a day from Day 3 to Day 42
Protocol: (§1) Group 1M: 20 tMCAO animals treated twice-a-day with vehicle from Day 3 (day 1 being day of stroke surgery) to Day 42 (via PO gavage)
(§2) Group 2M: 22 tMCAO animals treated twice-a-day with VX-745 (1.5 mg/kg) from Day 3 (day 1 being day of stroke surgery) to Day 42 (via PO gavage)
(§3) Group 3M: 21 tMCAO animals treated twice-a-day with VX-745 (4.5 mg/kg) from Day 3 (day 1 being day of stroke surgery) to Day 42 (via PO gavage)
(§4) Transient middle cerebral artery occlusion was performed according to the method described in R. Schmid-Elsaesser et al., Stroke, 29(10):2162-2170 (1998). The right Common Carotid Artery (CCA) was exposed through a midline neck incision and carefully dissected free from surrounding nerves and fascia—from its bifurcation to the base of the skull. The occipital artery branches of the ECA (External Carotid Artery) were then isolated, and these branches were dissected and coagulated. The ECA was dissected further distally and coagulated along with the terminal lingual and maxillary artery branches, which was then divided. The ICA (Internal Carotid Artery) was isolated and carefully separated from the adjacent vagus nerve, and the pterygopalatine artery was ligated close to its origin with a 5-0 nylon suture (SMI, Belgium). […]

[3] = tested on: rat model of stroke (transient MCAO); experiment: tMCAO rat stroke model: body swing test; format: in vivo
Protocol: as §1, §2, §3
(§5) Transient middle cerebral artery occlusion was performed according to the method described in R. Schmid-Elsaesser et al., Stroke, 29(10):2162-2170 (1998). The right Common Carotid Artery (CCA) was exposed through a midline neck incision and carefully dissected free from surrounding nerves and fascia—from its bifurcation to the base of the skull. The occipital artery branches of the ECA (External Carotid Artery) were then isolated, and these branches were dissected and coagulated. […]
The rat was held approximately one inch from the base of its tail. […] A swing was recorded whenever the rat moved its head out of the vertical axis to either side. Before attempting another swing, the rat had must return to the vertical position for the next swing to be counted. Twenty (20) total swings were counted. […] Body swing scores were expressed as a percentage of rightward over total swings. […]

cytokine signaling = conditions: cited from earlier work
[4] = tested on: cytokine production (TNF-α and IL-1β) in whole blood; conditions: inhibition of cytokine production (anti-inflammatory activity); cited from earlier work
IL-1β = IL-1β ELISA of brain at termination of tMCAO study; format: in vivo, rat; conditions: right minus left hemisphere; Groups 2M and 3M versus 1M; n=18 per group
Source text: The brains of all animals were harvested on Day 44. Rats were sacrificed by CO2 inhalation. Brains were harvested from all animals in each group, divided to left and right hemisphere, weighed, and snap frozen.
Brains were harvested at study termination. Each brain was dissected into two hemispheres and each hemisphere was weighed and enclosed into tubes marked Left or Right. Each tube was immediately frozen in liquid nitrogen and stored at (−80)° C. The tissues were defrosted and homogenized in 1 ml/200 mg tissue of 20 mM Tris-HCL pH 7.4 containing a protease inhibitor cocktail (50 μl/ml). Samples were centrifuged at 10,000 g for 15 min at 4°. Clear supernatants were aliquoted (150 μl/aliquot) and stored at (−80)° C. until ELISA assays were performed. ELISA assay was executed according to kit instructions. Standards and samples were tested in duplicates.
Following study termination, animals were also tested for IL-1β brain levels using the ELISA system (see FIG. 8 for standard curves). The variability of the results was too large to allow definitive conclusions. All the results below the Lower Limit of Quantification (LLOQ) were assigned the LLOQ value of 5 pg/ml. Then, results for the uninjured left side were subtracted from the results of the right side. The distribution for individual rats is given in the figure below (n=18 in each of the study groups) (FIG. 9).

[5] = tested on: IL-1β production and signaling; conditions: cited from earlier work
[6] = brain distribution in pre-clinical studies; format: in vivo
Source text: The inhibition of MAPK by VX-745 blocks the downstream synthesis of inflammatory cytokines TNF-α and IL-1β. […] VX-745 preferentially distributes to the brain with drug concentrations in the brain in pre-clinical studies being approximately two-fold higher than in the blood. Stroke

[7] = tested on: rat model of stroke (transient MCAO); experiment: tMCAO rat stroke model: stepping test; format: in vivo; conditions: Groups 2M (1.5 mg/kg) and 3M (4.5 mg/kg), PO twice a day; Week 4 up to Week 6
Protocol: as §1, §2, §3, §5
Animals were tested for forelimb akinesia in a stepping test (ST). The animal was held with its hind limbs fixed in one hand and the forelimb, not to be monitored, in the other, while the unrestrained fore-paw touches the table. The number of adjusting steps were counted while the animal was moved sideways along the table surface (85 cm during approximately five seconds), in the forehand & backhand direction for both forelimbs. […]

[8] = tMCAO study: body weight, clinical signs, mortality; format: in vivo, rat
Protocol: Altogether 76 adult male Sprague Dawley rats, purchased from Harlan Laboratories, (Israel), and weighing 300-350 g were used for the experiment. Animals were housed at a standard temperature (20-24° C.) and in a light-controlled environment (12 hours light/12 hours dark) with ad libitum access to food and water.
as §1, §2, §3
Animals were handled at a minimum for three days before the surgery. Baseline measures were taken before stroke was induced. Stroke surgery occurred on Day 1. On Day 2, 24 hours post-stroke surgery, Neuroscore testing was performed. Only animals reaching and exceeding Neuroscore criteria was included in the study. On Days 3-42, treatment with vehicle or VX-745 was administered twice a day for 40 days via PO (oral) gavage for all groups. Behavioral tests for all groups were conducted on weeks 4 and 6. Animals were sacrificed on Day 44 and brains were harvested.
Statistical analysis was performed when applicable by two-way ANOVA for repeated measures, followed by Bonferroni post-hoc tests for all the data presented in the results section (*p<0.05; **p<0.01; ***p<0.001).

[9] = tested on: rat model of stroke (transient MCAO); experiment: tMCAO rat stroke model: forelimb placement test; format: in vivo; conditions: Groups 2M (1.5 mg/kg) and 3M (4.5 mg/kg), PO twice a day; Week 4 and Week 6
Protocol: as §1, §2, §3, §4

| Compound | effect on recovery from neurologic deficit (animal models of stroke) | mean blood concentration [1] | neuroscore delta (change from Day 2 to Week 4 or Week 6) versus vehicle control group 1M [2] | absolute neuroscore versus vehicle control group 1M ([2]; Weeks 4 and 6) | body swing test (difference between left turn and right turn) versus vehicle control group 1M ([3]; Groups 2M (1.5 mg/kg) and 3M (4.5 mg/kg), PO twice a day) | body swing test, extent of recovery ([3]; particularly in the 4.5 mg/kg dose group) | IC50 for inhibition of cytokine signaling relative to IC50 for cytokine production (cytokine signaling) | whole blood IC50 [4] [µg/mL] | IL-1β levels in the brain at study termination, between the groups (IL-1β) | IL-1β production and signaling in vitro [5] | drug concentrations in the brain versus in the blood [6] | stepping test (left forelimb), number of steps versus vehicle control group 1M [7] | body weight, differences between groups ([8]; all groups through the study, two-way ANOVA, Bonferroni) | rats that died after treatment initiation ([8]; group 2M (1.5 mg/kg), within two weeks of treatment initiation) | general clinical signs, differences between groups ([8]; tMCAO rats, 1.5 and 4.5 mg/kg PO twice a day) | forelimb placement test score versus vehicle control group 1M [9] |
| --- | --- | --- | --- | --- | --- | --- | --- | --- | --- | --- | --- | --- | --- | --- | --- | --- |
| C[S+]([O-])c1ccc(-c2nc(-c3ccc(F)cc3)c(-c3ccncc3)[nH]2)cc1 (stereo not shown) [SB203850] | no significant effect |  |  |  |  |  |  |  |  |  |  |  |  |  |  |  |
| O=c1ncn2nc(Sc3ccc(F)cc3F)ccc2c1-c1c(Cl)cccc1Cl [VX-745] |  | approximately 75 ng/mL | statistically significant difference | statistically significant difference | statistically significant difference | near normalization | half that for cytokine production | 0.065 to 0.08 | No statistically significant differences | inhibits IL-1β production and signaling in vitro | approximately two-fold | statistically significant difference | No statistically significant differences | one | no observed differences | Statistically significant differences |
